Reference: patent EP1056700B1, “MEDICINAL USES OF PHENYLALKANOLS AND DERIVATES” (ZingoTX Pty Ltd, priority 1997, dated 1999)
Entries after “also recorded” stand apart in the source; their conditions may differ.

How the values were obtained:
guinea pig atria = assay: Organ bath assay on isolated guinea pig atria (rate and force of contraction)
Procedure, shortened: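 Test substances (DMSO, final 2.5 %) applied up to a maximum of 50 µM. Preparation: isolated atria of young (3-4 wk) male guinea pigs under 1 g resting tension in carbogen-oxygenated Krebs-Henseleit, baseline stable 20 min. Read-outs: beating rate and contractile force.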

right atrium-vagus rat = assay: Cardiovascular and neuro-effector junction activities: right atrium-vagus, rat; conditions: result in words with concentration
Description: (§1) The cardiotonic action of 1-(4-hydroxy-3-methoxyphenyl)dodecan-3-ol [3.93] was confirmed from independent studies, carried out at our request as part of our agreement with Johnson & Johnson Research Ltd (J&J), by Prof. James Angus from the University of Melbourne. […] A tachycardial effect of the substance on guinea pig atria was, however, observed at significant rate, 50-60% of isoprenaline Emax and the response was not α- or β-adrenoceptor mediated. […] Cardiovascular and neuro-effector junction activities of gingerol analogues

[1] = test system: right atrium-vagus guinea pig; assay: Cardiovascular and neuro-effector junction activities: right atrium-vagus, guinea pig; conditions: result in words with concentration
Description: as §1

right atrium guinea pig = assay: Cardiovascular and neuro-effector junction activities: right atrium, guinea pig; conditions: for right atrium guinea pig: result in words with concentration
Description: as §1

rat mesenteric artery = assay: Vasodilation on rat mesenteric small arteries
Description: Small arteries (200-300 µm in diameter) isolated from rat mesentery were precontracted with endothelin prior to addition of the test substances and tested for relaxation.

SR Ca^2+-ATPase = molecular target: T1, SR Ca^2+-ATPase (Canis lupus familiaris, UniProt O46674); assay: Sarcoplasmic reticulum Ca^2+-ATPase assay; format: biochemical, dog; conditions: for SR Ca^2+-ATPase Activity: 0 µM = 100, dog cardiac SR; for SR Ca^2+-ATPase ↑ increase or stimulation: @ 25 µM; for IC50: read-out: SR Ca^2+-ATPase IC50 = conc. for 50% inhibition
T1 construct: Effect of gingerols and their derivatives on the Ca^2+-ATPase activity of dog cardiac SR; from tissue; host or cells: dog heart (cardiac sarcoplasmic reticulum)
Procedure, shortened: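 Dog cardiac SR Ca^2+-ATPase activity was measured with 20 mM ATP solution over 30 min at 37°C. Released inorganic phosphate was developed colorimetrically, read at 655 nm and quantified against a Pi standard curve, with controls lacking ATP or calcium. Compounds from 10 mM DMSO stocks were tested in duplicate at ≤2.5% final DMSO.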

vas deferens rat = assay: Cardiovascular and neuro-effector junction activities: vas deferens, rat
Description: as §1

left atrium rat = assay: Cardiovascular and neuro-effector junction activities: left atrium, rat; conditions: result in words with concentration
Description: as §1

DRG neuronal cells = assay: Peak [Ca^2+]i transients in cultured dorsal root ganglion neurons (Fura-2); format: cell-based, rat; conditions: for Number of capsaicin-sensitive cells responding / Peak [Ca^2+]i (Average ±SD): 2 mM Ca^2+
Procedure, shortened: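 Neonatal or adult Sprague-Dawley rat DRG neurons, Percoll-enriched and NGF-cultured, were loaded with 5 µM Fura-2 AM and imaged by 340/380 nm ratio at 20–23 °C in buffer with 2 mM Ca²⁺, pH 7.4. Compounds at 10 µM were perfused for 1 min, then washed out for 4 min. Viability was confirmed with 10 µM capsaicin and 50 mM KCl.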

left atrium guinea pig = assay: Cardiovascular and neuro-effector junction activities: left atrium, guinea pig; conditions: for left atrium guinea pig: result in words with concentration
Description: as §1

Platelet rich plasma = assay: Platelet aggregation: [^3H]-serotonin release from platelet rich plasma, arachidonic acid initiated; format: cell-based; conditions: Homo sapiens, activation by EC50 concentration of arachidonic acid
Experimental: Blood was collected from healthy volunteers who had taken no medication in the previous two weeks. The anticoagulant used was 3.8 % trisodium citrate. Platelet rich plasma was prepared and incubated with [^3H]-serotonin. This was followed by addition of gingerol analogues. Platelet activation was initiated using the EC50 concentration for arachidonic acid. The percentage of [^3H]-serotonin release was measured using a liquid scintillation counter. Then, dose-response curves were established and IC50 values were obtained.

right atrium rat = assay: Cardiovascular and neuro-effector junction activities: right atrium, rat; conditions: result in words with concentration
Description: as §1

[2] = result in words, guinea pig atria

T1 sequence (O46674 whole entry): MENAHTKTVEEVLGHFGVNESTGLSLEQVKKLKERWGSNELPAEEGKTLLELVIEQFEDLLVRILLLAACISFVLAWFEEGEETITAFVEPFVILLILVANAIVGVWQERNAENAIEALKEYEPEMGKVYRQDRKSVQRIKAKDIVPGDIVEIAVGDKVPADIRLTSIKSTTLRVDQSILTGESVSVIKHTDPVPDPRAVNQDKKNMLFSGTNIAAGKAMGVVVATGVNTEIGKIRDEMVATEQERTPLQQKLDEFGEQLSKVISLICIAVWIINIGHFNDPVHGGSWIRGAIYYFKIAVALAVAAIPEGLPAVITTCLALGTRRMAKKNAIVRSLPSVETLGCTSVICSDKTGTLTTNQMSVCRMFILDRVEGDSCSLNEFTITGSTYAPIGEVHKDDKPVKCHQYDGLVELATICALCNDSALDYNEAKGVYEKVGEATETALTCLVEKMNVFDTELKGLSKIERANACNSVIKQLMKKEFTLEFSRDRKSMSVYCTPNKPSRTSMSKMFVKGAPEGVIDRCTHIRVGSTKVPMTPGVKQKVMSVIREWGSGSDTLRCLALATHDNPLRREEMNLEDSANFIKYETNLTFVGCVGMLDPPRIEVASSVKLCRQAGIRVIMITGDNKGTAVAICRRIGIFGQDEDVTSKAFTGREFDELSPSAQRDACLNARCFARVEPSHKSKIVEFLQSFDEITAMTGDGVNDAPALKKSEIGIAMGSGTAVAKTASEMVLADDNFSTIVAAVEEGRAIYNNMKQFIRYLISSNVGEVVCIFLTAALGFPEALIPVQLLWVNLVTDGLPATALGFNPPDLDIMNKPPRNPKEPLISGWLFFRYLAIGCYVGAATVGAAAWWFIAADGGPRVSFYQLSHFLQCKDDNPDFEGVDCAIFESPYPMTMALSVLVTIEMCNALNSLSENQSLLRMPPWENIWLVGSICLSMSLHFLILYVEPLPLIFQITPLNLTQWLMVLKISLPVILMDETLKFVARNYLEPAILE

SMILES: CCCCCCCCCC(O)CCc1ccc(O)c(OC)c1 (stereo not shown) [1-(4-hydroxy-3-methoxyphenyl)dodecan-3-ol]
- FORCE OF CONTRACT^n ↑ increase (guinea pig atria; @ 10 (µM), guinea pig atria): ↑180% @ 10
- HEART RATE ↑ increase (guinea pig atria; @ 10 (µM), guinea pig atria): ↑50% @ 10
- increase on driven guinea pig left atria (guinea pig atria; at 1 µM, followed by arrhythmia): 50%
- potency of one enantiomer versus the other in increasing the force of contraction (guinea pig atria; guinea pig atria): 100 fold
- arrhythmia (guinea pig atria; guinea pig atria, after addition of a dose): followed by arrhythmia
- right atrium-vagus rat (right atrium-vagus rat): dramatic enhancement n=1 10^-6 - 10^-5 M
- right atrium-vagus guinea pig [1]: no enhancement of vagal slowing 10^-7 - 10^-5 M
- Emax (right atrium guinea pig; Cavia porcellus, right atrium guinea pig, 10^-7 - 3x10^-5 M, not blocked by praz., prop., read-out: tachycardia, % of isoprenaline Emax): 50 to 60%
- right atrium guinea pig (right atrium guinea pig): tachycardia 10^-7 - 3x10^-5 M
- tachycardia, % of isoprenaline Emax (right atrium guinea pig; right atrium guinea pig, 10^-7 - 3x10^-5 M, not blocked by praz., prop.): 60%
- potency (EC50) for relaxation of the mesenteric artery versus inotropic effect in guinea pig atrium (rat mesenteric artery): 100 fold
- EC50 (rat mesenteric artery; Rattus norvegicus, relaxation of small arteries (200-300 µm) precontracted with endothelin): 0.1 µM
- relaxation of rat mesenteric artery (rat mesenteric artery; result in words): very potent; also recorded: both enantiomers showed similar potency
- SR Ca^2+-ATPase Activity (SR Ca^2+-ATPase; 5 µM): 102
- SR Ca^2+-ATPase Activity (SR Ca^2+-ATPase; 10 µM): 108
- SR Ca^2+-ATPase Activity (SR Ca^2+-ATPase; 25 µM): 140
- SR Ca^2+-ATPase Activity (SR Ca^2+-ATPase; 50 µM): 101
- SR Ca^2+-ATPase Activity (SR Ca^2+-ATPase; 100 µM): 98
- SR Ca^2+-ATPase Activity (SR Ca^2+-ATPase; 200 µM): 16
- SR Ca^2+-ATPase ↑ increase or stimulation (SR Ca^2+-ATPase): ↑40% @ 25
- IC50 (SR Ca^2+-ATPase): 50 to 100 µM
- block of ATP or α1-receptors in vas deferens (vas deferens rat): Neither blocked
- vas deferens rat ↓ (vas deferens rat; 10^-5 M (vehicle?)): ↓30% 10^-5 M (vehicle?)
- left atrium rat (left atrium rat): no change in force 10^-7 - 10^-5 M (n=2)
- Number of capsaicin-sensitive cells responding (DRG neuronal cells; high responses, 10 µM): 5
- Peak [Ca^2+]i (Average ±SD) (DRG neuronal cells; high responses, 10 µM): 661 ± 376 (high responses) nM
- evoked [Ca^2+]i transients (DRG neuronal cells; in Ca^2+-free medium or on application of ruthenium red (1 µM)): abolished or greatly diminished
- Number of capsaicin-sensitive cells responding (DRG neuronal cells; low responses, 10 µM): 10
- Peak [Ca^2+]i (Average ±SD) (DRG neuronal cells; low responses, 10 µM): 187 ± 66 (low responses) nM
- [Ca^2+]i in capsaicin-sensitive DRG cells (DRG neuronal cells; result in words): increased intracellular calcium
- inotropic, % isopren. max. (left atrium guinea pig; left atrium guinea pig, 10^-6 - 3x10^-5 M (not in rat)): 20%
- left atrium guinea pig (left atrium guinea pig): inotropic 10^-6 - 3x10^-5 M
- IC50 (Platelet rich plasma): 58 ± 1.9 µM
- right atrium rat (right atrium rat): tachycardi a 3x10^-7 - 3x10^-6 M (with propranolo 1 present)

SMILES: CCCCCCCC(O)CC(=O)c1ccc(O)c(OC)c1 (stereo not shown) [3-hydroxy-1-(4-hydroxy-3-methoxyphenyl)decan-1-one]
- FORCE OF CONTRACT^n ↓ decrease (guinea pig atria; @ 10 (µM), guinea pig atria): ↓11% @ 10
- HEART RATE ↓ decrease (guinea pig atria; @ 10 (µM), guinea pig atria): ↓5% @ 10
- FORCE OF CONTRACT^n ↓ decrease (guinea pig atria; @ 30 (µM), guinea pig atria): ↓13% @ 30
- increase on driven guinea pig left atria (guinea pig atria; at 10 µM): 50%
- FORCE OF CONTRACT^n (guinea pig atria; [2]): negative inotropic activity
- HEART RATE (guinea pig atria; [2]): negative chronotropic activity
- right atrium-vagus rat (right atrium-vagus rat): some enhanced slowing 10^-6 - 10^-5 M
- right atrium-vagus guinea pig [1]: weak? enhanced slowing 10^-7 - 10^-6 M
- right atrium guinea pig (right atrium guinea pig): no change basal rate 10^-7 - 10^-5 M
- SR Ca^2+-ATPase Activity (SR Ca^2+-ATPase; 1 µM): 104
- SR Ca^2+-ATPase Activity (SR Ca^2+-ATPase; 5 µM): 152
- SR Ca^2+-ATPase Activity (SR Ca^2+-ATPase; 10 µM): 174
- SR Ca^2+-ATPase Activity (SR Ca^2+-ATPase; 25 µM): 195
- SR Ca^2+-ATPase Activity (SR Ca^2+-ATPase; 50 µM): 180
- SR Ca^2+-ATPase Activity (SR Ca^2+-ATPase; 100 µM): 222
- SR Ca^2+-ATPase ↑ increase or stimulation (SR Ca^2+-ATPase; listed as 3-hydroxy-1-(4-hydroxy-3-methoxyphenyl) decan-1-one (3.92)): ↑95% @ 25
- SR Ca^2+-ATPase ↑ increase or stimulation (SR Ca^2+-ATPase; listed as 3.92): 95%
- stimulatory activity towards dog heart SR Ca^2+-ATPase (SR Ca^2+-ATPase; at 3 µM): 200%
- IC50 (SR Ca^2+-ATPase): ~50 µM
- block of ATP or α1-receptors in vas deferens (vas deferens rat): Neither blocked
- vas deferens rat (vas deferens rat; result in words with concentration): no effect 10^-4 M
- left atrium rat (left atrium rat): no change 10^-7 - 3x10^-5 M (sharp fall 10^-4 M)
- Number of capsaicin-sensitive cells responding (DRG neuronal cells; 10 µM applied for 1 min): 0 out of 5
- Peak [Ca^2+]i (Average ±SD) (DRG neuronal cells; 10 µM applied for 1 min): 0 nM
- left atrium guinea pig (left atrium guinea pig): • no inotropi sm
- effect on isoprenaline response, left atrium guinea pig (left atrium guinea pig; up to 30 µM): • no effect on isoprenali ne response (up to 30 µM)
- right atrium rat (right atrium rat): no change basal rate 10^-7 - 10^-5 M
